Biological target: T1, Glucocorticoid receptor (Homo sapiens, UniProt P04150)
T1 sequence (P04150 whole entry): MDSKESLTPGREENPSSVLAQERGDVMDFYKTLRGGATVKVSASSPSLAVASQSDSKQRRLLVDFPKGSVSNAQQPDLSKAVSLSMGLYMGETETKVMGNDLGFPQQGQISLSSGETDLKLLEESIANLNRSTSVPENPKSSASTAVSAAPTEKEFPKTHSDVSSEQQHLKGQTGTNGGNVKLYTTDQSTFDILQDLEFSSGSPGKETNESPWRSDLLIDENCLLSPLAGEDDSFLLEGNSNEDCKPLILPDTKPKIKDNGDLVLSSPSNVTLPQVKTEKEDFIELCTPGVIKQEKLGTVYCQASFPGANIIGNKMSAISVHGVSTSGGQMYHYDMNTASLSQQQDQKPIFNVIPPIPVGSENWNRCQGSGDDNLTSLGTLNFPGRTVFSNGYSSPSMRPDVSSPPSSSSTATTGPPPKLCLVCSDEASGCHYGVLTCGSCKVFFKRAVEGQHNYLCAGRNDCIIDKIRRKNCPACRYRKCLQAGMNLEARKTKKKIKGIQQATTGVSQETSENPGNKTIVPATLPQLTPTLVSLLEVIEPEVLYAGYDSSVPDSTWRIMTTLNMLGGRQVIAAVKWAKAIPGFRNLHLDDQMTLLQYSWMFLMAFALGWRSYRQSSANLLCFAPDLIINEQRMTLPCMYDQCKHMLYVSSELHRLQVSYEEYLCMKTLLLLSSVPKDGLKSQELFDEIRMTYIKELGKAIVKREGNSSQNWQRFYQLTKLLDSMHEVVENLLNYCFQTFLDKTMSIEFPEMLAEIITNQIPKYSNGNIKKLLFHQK
Experiment: GRE Antagonist Assay
Source text: The generated cell line allows for identification of compounds showing antagonist activity at the human glucocorticoid receptor (GR) via reduction of LacZ gene expression. Dexamethasone-activated GR binds to the Glucocorticoid Response Element (GRE) in the promoter of the LacZ gene and transcription is initiated.

IC50: 158 nM
Structure (SMILES): CC(C)[C@H](NC(=O)C(C)(F)F)[C@H](Oc1ccc2c(cnn2-c2ccc(=O)n(C)c2)c1)c1ccccc1 [US10196374, Example 1]
